How the values were obtained:
[1] = HPMC vs gelatin capsules of amorphous Compound 2: potency, purity, water uptake after 1 week; assay type: physicochemical
Procedure: Twenty capsules of both hydroxypropyl methylcellulose (HPMC, also known as Hypromellose) and gelatin were filled with 25±1 mg of amorphous Compound 2 to determine if the lower water content found in HPMC capsules would retard the water uptake of the compound. Samples of Compound 2 in both capsule types were placed at 25° C./60% RH and 40° C./75% RH for 1 week. The samples were analyzed for water content, potency, and % purity (% area) at t=0 and t=1 week.
20 transparent size 00 HPMC capsules and 20 transparent size 00 gelatin capsules were hand filled with API.
Each capsules was filled with 25±1 mg of API.
The two capsule types were both separated into two 30 cc HDPE bottles with caps and placed at both 25° C./60% RH and 40° C./75% RH for 1 week.
For the t=0 time point, Compound 2 was analyzed for water content, potency, and % purity (% area).
Two samples of Compound 2 were taken at t=0 for water content. The first sample was taken after the HPMC capsules had been filled and the second sample was taken after the gelatin capsules had been filled. This sampling procedure was done to offset the water uptake that took place while the capsules were being filled.
76.17 mg of Compound 2 was weighed directly into a 100-mL volumetric flask.
The flask was diluted to volume with ACN and inverted to mix.
A 1 mL aliquot was transferred directly into an HPLC vial for analysis.

[2] = Bulk density, tap density, powder flow, particle size and milling feasibility of Compound 2; assay type: physicochemical; conditions: for Tap Density: Autotap 100 cycles
Procedure: Compound 2 particle size distribution was determined by sieve screen analysis. A sample of Compound 2 was passed through a series of sieves, which included a 53, 106, 250, 500, 710, and 1000 μm mesh screen. Each screen was weighed before and after the sieving occurred to determine the amount of compound at each particle size.
The powder flow was determined on a FlowDex apparatus.
Bulk density was determined by filling a tared 100 mL graduated cylinder with Compound 2. The volume and weight of Compound 2 added was recorded and used to calculate its bulk density. Tap density was then determined by taking the same graduated cylinder filled with Compound 2 and placing it on an Autotap set for 100 cycles. The new powder volume was recorded and used to calculate the tap density.
24.73 mg of Compound 2 was weighed directly into a tared 25 mL volumetric flask. The flask was diluted to volume with ACN and inverted to mix. A sample was taken to determine the % purity (% area) of the drug before milling took place. Milling was performed by taking 17.92 g of Compound 2 and passing this material it through a conical mill with an 1143 μm screen. 14.33 g of Compound 2 was recovered and re-analyzed for particle size distribution, bulk density, and tap density. 24.93 mg of milled Compound 2 was weighed directly into a tared 25 mL volumetric flask. The flask was diluted to volume with ACN and inverted to mix. This sample was taken to determine the % purity (% area) after Compound 2 had been milled.
After Compound 2 had been milled it was blended with 2.5% w/w of colloidal silicon dioxide, Cab-O-Sil®, on a T2 Turbula blender for 2 minutes. The blended powder was collected and its flow properties were analyzed on a FlowDex apparatus.

[3] = Gelatin Capsules, 25° C., t = 1 week
[4] = Gelatin Capsules, 40° C., t = 1 week
[5] = HPMC Capsules, 25° C., t = 1 week
[6] = HPMC Capsules, 40° C., t = 1 week

Compound: COc1ccc2c(c1OCc1ccccc1)C[C@@H](C(=O)[O-])N(C(=O)C(c1ccccc1)c1ccccc1)C2.[Na+] [Compound 2, sodium salt of (S)-2-(diphenylacetyl)-1,2,3,4-tetrahydro-6-methoxy-5-(phenylmethoxy)-3-isoquinoline carboxylic acid]
- % Potency [1, 3]: 90.1%
- % a/a Purity [1, 3]: 98.95 % a/a
- Δ% a/a Purity [1, 3]: 0.00 % a/a
- % Potency [1, 4]: 90.8%
- % a/a Purity [1, 4]: 98.88 % a/a
- Δ% a/a Purity [1, 4]: −0.07 % a/a
- % Potency [1, 5]: 90.2%
- % a/a Purity [1, 5]: 98.95 % a/a
- Δ% a/a Purity [1, 5]: 0.00 % a/a
- % Potency [1, 6]: 89.8%
- % a/a Purity [1, 6]: 98.74 % a/a
- Δ% a/a Purity [1, 6]: −0.21 % a/a
- % Potency ([1]; Sample t = 0): 86.3%
- % a/a Purity ([1]; Sample t = 0): 98.95 % a/a
- potency and % purity (% area) after 1 week ([1]; all conditions tested (HPMC and gelatin capsules, 25° C./60% RH and 40° C./75% RH)): unchanged
- slowing of the uptake of water by HPMC capsules relative to gelatin ([1]; stored at 40° C./75% RH, 1 week): 3.74%
- average particle size ([2]; after milling): ~560 μm
- % Purity with milling ([2]; before vs after milling): % Purity of Compound 2 sample did not change with milling.
- powder flow (FlowDex) ([2]; bulk unmilled): unable to pass through the largest available, 34 mm, orifice
- average particle size ([2]; bulk, before milling): ~775 μm
- Bulk Density ([2]; milled (conical mill, 1143 μm screen)): 0.073 g/mL
- Tap Density ([2]; milled): 0.098 g/mL
- powder flow (FlowDex) ([2]; milled, blended with 2.5% w/w colloidal silicon dioxide): passed through a 34 mm orifice but failed to pass through a 32 mm orifice
- Bulk Density ([2]; unmilled): 0.089 g/mL
- Tap Density ([2]; unmilled): 0.114 g/mL

Source: patent publication US8614227B2, “Salt and solvates of a tetrahydroisoquinoline derivative” (Spinifex Pharmaceuticals Pty Ltd, priority 2010, dated 2013)
